Measured values from US7413903B2, “Methods of regulating differentiation in stem cells” (ES Cell International PTE Ltd., priority 2002, dated 2008).

What was measured:
[1] = system: hES cells; assay: GCTM-2 quantification (alkaline phosphatase-coupled secondary antibody, OD 405 nm); format: cell-based, human; details: for effect of inhibitor on the effect of PDGF and S1P on GCTM2 expression: 7 days, U0126, DMS 3 μM; for more GCMT2+ than the control cells / GCTM2 levels, PDGF isoform added with S1P: Example 1; for more GCMT2+ than the control cells: on MEF, 8 days, S1P 10 μM; for more GCMT2+ than the control cells / more GCMT2+ than the controls: serum-free; for more GCMT2+ than the controls: treated for 2 weeks
Source text: hES-3 cells plated with MEF, were fixed in ethanol and immunostained with GCTM-2 and then with an alkaline phosphatase-coupled secondary antibody (Dako). The activity of alkaline phosphatase was detected by adding a solution of 4-nitrophenyl phosphate (Roche, Mannheim, Germany), followed by reading the optical density (OD) at 405 nm. In order to validate the technique as a relevant indicator of the proportion of GCTM-2 positive cells, standard curves were done with the teratocarcinoma cell line GCT27C4, known to express GCTM-2.
Cells were fixed in 100% ethanol and immunostained with GCTM-2 followed by alkaline phosphatase-coupled secondary antibodies (Dako). Alkaline phosphatase activity was detected by adding a solution of 4-nitrophenyl phosphate (Roche), and the concentration of the reaction product was determined by reading the optical density (OD) at 405 nm. In order to validate the technique as an accurate indicator of the proportion of GCTM-2 positive cells, standard curves were carried out with the embryonal carcinoma cell line GCT27C4, known to express GCTM-2 ^20.

[2] = system: hES cells; assay: GCTM-2 / PCNA double immunostaining and cell counting of mechanically dissociated hES cells; format: cell-based, human; details: for percentage of cells GCTM2+: mechanically dissociated, PDGF 10 ng/ml
Experimental: In some experiments, hES-3 cells plated onto 8-well chamber slides, with or without MEF, were fixed in ethanol or paraformaldehyde (for PDGFR) the day after plating. In others, hES-3 cells were mechanically dissociated, in order to obtain a monolayer culture and then plated onto 8-well chamber slides without MEF and were fixed in ethanol 4 days after the first treatment. Immunostaining was performed using the following antibodies: anti human PDGFR-α or PDGFR-β(R&D Systems Inc.), GCTM-2, and/or PCNA (Chemicon, Boronia, VIC, Australia), TRA-1-60, Oct-4. Nuclei were evidenced by Hoechst-33342. Slides were mounted and observed by fluorescent microscopy with a Leica microscope at X10, X20 and X40. Specificity was verified by the absence of any staining in the negative controls. In some experiments, cells were counted to determine the ratio of cells within the global population.
For immunostaining, hES-3 cells were coated on chamber slides after mechanical dissociation, in order to obtain a monolayer culture. The day following the plating, cells were incubated with the different agents in a media depleted in serum. Media was changed the 2nd day and the cells were fixed 4 days after the first treatment.
Cells were washed in PBS, fixed with MeOH, and immunostaining was performed, using the specific stem cell marker antibody GCTM-2, and the specific cell proliferation marker PCNA. Cells were then washed and the nucleuses were stained with Hoechst-33342 (1 μg/ml). Slides were mounted and then observed by fluorescent microscopy. Cells were then counted in order to determine the ratio of proliferating stem cells within the overall population.

[3] = system: ERK1/2 (Erk1 and Erk2); assay: ERKs phosphorylation in hES cells (Western blot, anti-active MAP kinase); format: cell-based, human; details: for phosphorylation of ERKs in hES cells: 5 min incubation, LPA, PDGF 20 ng/ml, serum-depleted, without MEF
Experimental: hES-3 cells plated without MEF for 24 hrs were depleted of serum for a further 18 hrs. Cells pre-treated or not with U0126 (Sigma, 30 μM, 1 hr), were incubated in the presence of the different agents for 5 min and were lysed by removal of the supernatants and addition of a reducing loading buffer containing 1 mM sodium orthovanadate (Sigma). Protein lysates (approx. 80 μg) were separated by SDS-polyacrylamide gel electrophoresis (10% polyacrylamide, w/v), transferred to nitrocellulose (Hybond-nitrocellulose, Amersham) and immunoblotting was carried out using rabbit polyclonal anti-active mitogen-activated protein (MAPK) antibodies raised against a dually phosphorylated MAPK peptide (Promega, Madison, Wis., USA). Peroxidase-coupled secondary antibody (Dako) was detected by exposure of autoradiographic films in the presence of a chemiluminescent detection reagent (ECL, Amersham). Stripping of antibodies was achieved and membranes were then reprobed with rabbit polyclonal anti-ERK1/2 antibodies (Promega), and then with peroxidase-coupled secondary antibodies (Dako). Membranes probed with either rabbit polyclonal anti-active p38 (Promega) or rabbit polyclonal anti-active JNK (Promega) antibodies were also performed, using the same procedure as described
For immunoblot analysis, cells were transferred into 24 well plates (8 colonies per well) without MEFs, and 24 hr later, were grown in the absence of serum for 18 hrs.
In some experiments, cells were pre-treated for 1 hr with U0126 (30 μM) or for 18 hrs with PTX (100 μg/ml).
hES3 cells were lysed following removal of the supernatants by addition of a reducing loading buffer (2% SDS, 62.5 mM Tris pH 6.8, 0.1 M DTT, 0.01% bromophenol blue) containing 1 mM sodium orthovanadate. Samples were boiled for 10 min and centrifuged at 13000 g for 15 min, and protein lysates (approx. 80 μg) were separated by SDS-polyacrylamide gel electrophoresis (10% polyacrylamide, w/v). Proteins were transferred to nitrocellulose (Hybond-ECL, Amersham) and immunoblotting was carried out with rabbit polyclonal anti-active mitogen-activated protein (MAPK) antibodies raised against a dually phosphorylated MAPK peptide (Promega, Madison, Wis., USA). Peroxidase-coupled secondary antibody (Dako) was detected by exposure of autoradiographic films in the presence of a chemiluminescent detection reagent (ECL, Amersham). Stripping of antibodies was achieved by incubating the membrane during 30 min at 50° C. in a buffer containing 100 mM mercaptoethanol, 2% SDS, 62.5 mM Tris-HCl pH 6.7. The membrane was then reprobing with rabbit polyclonal anti-ERK1/2 antibodies (Promega), and then with peroxidase-coupled secondary antibodies (Dako).

[4] = system: hES cells; assay: Direct observation of hES cell colonies in serum-free medium (spontaneous differentiation); format: cell-based, human; details: for colony morphology / spontaneous differentiation vs control: Example 1, PDGF 20 ng/ml; for colony morphology / spontaneous differentiation vs control / colony size, morphology / spontaneous differentiation vs controls: on MEF, serum-free; for colony morphology / spontaneous differentiation vs control / colony size, morphology / spontaneous differentiation vs controls / colony growth / differentiation vs control: LPA up to 50 μM; for colony size, morphology / spontaneous differentiation vs controls: Example 2, 2 weeks, PDGF-AB 20 ng/ml; for colony growth / differentiation vs control: 12 days
Experimental: (§1) hES-3 cells were cultured as previously described^1. The serum-free culture medium consisted of DMEM (without sodium pyruvate, glucose 4500 mg/l, Invitrogen, Mount Waverley, VIC, Australia) supplemented with insulin/transferrin/selenium 1%, β-mercaptoethanol 0.1 mM, NEAA 1%, glutamine 2 mM, Hepes 25 mM, penicillin 50 U/ml and streptomycin […] (all from Invitrogen). Medium was changed every 2 days and cells were passaged every week. S1P and dihydro-S1P were obtained from Biomol (Plymouth Meeting, Pa., USA) and were dissolved in methanol. LPA was obtained from Sigma (Castle Hill, NSW, Australia) and was dissolved in ethanol. Extemporaneous dilutions of all lipids were made in water containing 0.1% fatty acid-free bovine serum albumin (BSA) (Sigma). Human PDGF-AB, PDGF-AA, PDGF-BB were from PreproTech Inc. (Rocky Hill, N.J., USA). RT-PCR Experiments.
as §1, with “Media” for “Medium”, “USA).” for “USA) and were dissolved in methanol.”, “Australia).” for “Australia) and was dissolved in ethanol.”, “(Sigma). S1P and dihydro-S1P were used at […].” for “(Sigma).”, “USA) and were used at 20 ng/ml.” for “USA). RT-PCR Experiments.”
For direct observation, hES-3 cells were coated into 12-well plates (3 colonies per well), with or without mouse embryonic feeders (MEFs). The day following the plating, cells were incubated with the different agents in serum free medium containing insulin, transferring and selenium. Media was changed the 2nd day and then every 2 days.

[5] = system: SPK activity in hES cells; assay: Sphingosine kinase activity in hES cells after incubation with PDGF; format: cell-based, human; details: PDGF 20 ng/ml
Experimental: hES-3 cells plated without MEF for 24 hr and depleted of serum for a further 18 hr were incubated in the presence of PDGF (20 ng/ml) for various time periods and were harvested and lysed by sonication (2 W for 30 s at 4° C.) in lysis buffer containing 50 mM Tris/HCl (pH 7.4), 10% glycerol, 0.05% Triton X-100, 150 mM NaCl, 1 mM dithiothreitol, 2 mM Na3VO4, 10 mM NaF, 1 mM EDTA and protease inhibitors (Complete™, Roche, Mannheim, Germany). SPK activity was determined using D-erythro-sphingosine and […] as substrates, as previously described^19. Protein concentrations in cell homogenates were determined with Coomassie Brilliant Blue reagent (Bio-Rad, Regent Park, NSW, Australia) using bovine serum albumin as standard.

[6] = system: SPK in MEF; assay: Sphingosine kinase activity in MEF after incubation with PDGF; format: cell-based, mouse; details: PDGF 20 ng/ml
[7] = Example 1, 4 days, no MEF, no serum, S1P 10 μM
[8] = Example 1, 4 days, no MEF, no serum
[9] = Example 4, on MEFs, serum-depleted, S1P 10 μM

For `CCCCCCCCCCCCC/C=C/[C@@H](O)[C@H](CO)N(C)C` [DMS, dimethylsphingosine], the “effect of inhibitor on the effect of PDGF and S1P on GCTM2 expression” value [1] was “inhibited the effect of PDGF and S1P”.
For `CCCCCCCCCCCCC/C=C/[C@@H](O)[C@@H](N)COP(=O)(O)O` [S1P, sphingosine-1-phosphate], the “percentage of cells GCTM2+” value [2, 7] was 47.9±3.8%, the “proliferating rate of hES cells (PCNA) vs control” value (from here on “proliferating rate … vs control”) [2, 8] was “no statistically significant difference” and the “proliferating rate … vs control” value ([2]; Example 4, 4 days without serum, S1P 10 μM) was “no marked difference”. For the same compound, the “cells GCTM-2 positive” value ([2]; Example 4, 4 days without serum, S1P 10 μM (control 16%)) was 68%, the “concentration dependence of ERKs stimulation” value ([3]; 5 min, various concentrations of S1P) was “in a concentration dependant manner” and the “phosphorylation of ERKs in hES cells” value ([3]; S1P 10 μM) was “stimulated the phosphorylation of ERKs”. For the same compound, the “duration of ERKs stimulation” value ([3]; S1P 10 μM) was “at least 60 min”, the “colony morphology / spontaneous differentiation vs control” value ([4]; 8 days, S1P 10 μM) was “the colonies appeared flatter and less differentiated” and the “colony size, morphology / spontaneous differentiation vs controls” value ([4]; S1P 10 μM) was “the colonies appeared flatter and less differentiated”. For the same compound, the “colony morphology / differentiation vs control condition” value ([4]; Example 4, on MEFs, serum-depleted, 8 days, S1P 10 μM) was “the colonies were more compact and less differentiated”, the “colony growth / differentiation vs control” value [4, 9] was “more obvious after 12 days of treatment” and the “effect on cell differentiation, hES cells grown without MEFs” value ([4]; Example 4) was “inhibitory effect”. The “more GCMT2+ than the control cells” value ([1]; PDGF 20 ng/ml) was 16.6±4.1% and the “more GCMT2+ than the controls” value ([1]; Example 2) was 18.0±17.0%.
For `N#CC(=C(/N)Sc1ccccc1N)/C(C#N)=C(\N)Sc1ccccc1N` [U0126], the “effect of MEK inhibitor on agonist-stimulated phosphorylation of ERKs” value ([3]; U0126 30 μM, 1 hr pre-treatment) was “totally inhibited” and the “effect of inhibitor on the effect of PDGF and S1P on GCTM2 expression” value [1] was “totally inhibited”.
With `CCCCCCCCCCCCCCC[C@@H](O)[C@@H](N)COP(=O)(O)O` [dihydro-S1P, dihydrosphingosine-1-phosphate] the GCTM2 expression ([1]; Example 2, 2 weeks, dihydro-S1P, PDGF 20 ng/ml) was 223.0±27.0 % of control.
In the case of “PDGF-AA: Human platelet-derived growth factor isoform AA; only binds to PDGFR-a”, the “GCTM2 levels, PDGF isoform added with S1P” value [1] is reported as 120.5±4.5 % of control and the “GCTM2 expression, PDGF isoform with S1P” value ([1]; Example 2, 2 weeks, isoform 20 ng/ml together with S1P) is reported as 220.3±49.0 % of control.
For “PDGF: Human platelet-derived growth factor, isoform AB, from PreproTech; ligand of class III tyrosine kinase receptor”, the “percentage of cells GCTM2+” value [2, 7] was 53.7±13.2%, the “proliferating rate … vs control” value [2, 8] was “no statistically significant difference” and the “duration of enhanced SPK activity” value [5] was “at least 60 min”. For the same compound, the “SPK activity relative to basal values” ([5]; after 30 min of incubation) was 1.6 fold, the “activation of SPK in MEF” value [6] was “did not induce a significant statistical activation of SPK” and the “phosphorylation of ERKs in hES cells” value ([3]; S1P 10 μM) was “stimulated the phosphorylation of ERKs”. For the same compound, the “colony morphology / spontaneous differentiation vs control” value ([4]; 8 days, S1P 10 μM) was “the colonies appeared flatter and less differentiated”, the “colony size, morphology / spontaneous differentiation vs controls” value ([4]; S1P 10 μM) was “the colonies appeared flatter and less differentiated” and the “GCTM2 levels, PDGF isoform added with S1P” value [1] was 125.7±9.7 % of control. The “more GCMT2+ than the control cells” value ([1]; PDGF 20 ng/ml) was 16.6±7.0% and the “more GCMT2+ than the controls” value ([1]; Example 2) was 50.3±18.4%.
For lysophosphatidic acid [LPA], the “phosphorylation of ERKs in hES cells” value ([3]; S1P 10 μM) was “stimulated the phosphorylation of ERKs”, the “colony morphology / spontaneous differentiation vs control” value ([4]; 8 days, S1P 10 μM) was “did not have an obvious effect on growth of the colonies” and the “colony size, morphology / spontaneous differentiation vs controls” value ([4]; S1P 10 μM) was “no obvious effect on size or morphology of hES cell colonies”. For the same compound, the “colony growth / differentiation vs control” value [4, 9] was “did not seem to affect the growth of the colonies” and the “effect on cell differentiation, hES cells grown without MEFs” value ([4]; Example 4) was “lack of effect”.
